Experiments:
Assay type in all cases: cell-based, human
[1] = system: HeLa cells; test: MTT cytotoxicity assay, HeLa; conditions: for IC50: 48 h of drug exposure; for Selectivity: HeLa cell lines
Description: (§1) The in vitro cytotoxicity of the Ti(IV) complexes under investigation was investigated using MTT, a micro-titration colorimetric method. The in vitro cytotoxicity test of the Ti(IV) complexes was evaluated against the cervical cancer cell line (HeLa), human breast cancer cell line (MCF-7) and human kidney normal cell line (HEK-293).[65,66]
In the cytotoxicity assay, tetrazolium salt 3-[4,5-dimethylthiazol-2-yl]-2,5diphenyl tetrazolium bromide (MTT) was utilized to assess cell viability. The MTT powder was diluted in Dulbecco's PBS (stock solution of MTT (5 mg mL^−1)) to attain a final concentration of 0.5 mg mL^−1 and a […] was used to filter and sterilize the stock solution, which was then kept at 2–6 °C. In metabolically active cells, MTT is reduced to produce an insoluble purple formazan product. In the exponential phase, cells were taken out of the stored cultures after the 48-hour recovery period, following seeding onto 96-well plates at a density of 1 × 10^4 cells per well in 100 μL medium at 37 °C in a 95% air and 5% CO2 environment, and the cells were incubated for 12 hours. Cell lines were treated for 48 hours with Ti(IV) complexes at varying doses (9.5–300 μM) and cis-platin as a control (apart from normal cells). After 48 hours of incubation at 37 °C, the medium was removed and 100 μL of DMSO was added to dissolve the […], and the culture plates were shaken for five minutes. A Bio-Rad xMARK™ multi-well plate reader was used to measure the absorbance of each well at 570 nm. Using eqn (2), the percentage viability, which represents the relative viability of the treated cells in comparison to the control cells, was calculated, and the IC50 values and standard deviation of the substances under investigation were calculated in triplicate.2 [drawing 2]
(§2) An MTT assay was used to examine the cytotoxic effectiveness of the produced Ti(IV) complexes. After 48 hours of incubation, the cytotoxicity of Ti-1-IS to Ti-6-IBr was evaluated against human cancer cell lines, such as breast carcinoma (MCF7) and cervical cancer (HeLa), as well as the non-cancerous human embryonic kidney (HEK) cell line, by using the widely used therapeutic drug, cis-platin, as a positive control by following the standard protocol.

[2] = system: HEK-293 cells; test: MTT cytotoxicity assay, HEK-293; conditions: 48 h of drug exposure
Description: as §1
In the cytotoxicity assay, tetrazolium salt 3-[4,5-dimethylthiazol-2-yl]-2,5diphenyl tetrazolium bromide (MTT) was utilized to assess cell viability. […] A Bio-Rad xMARK™ multi-well plate reader was used to measure the absorbance of each well at 570 nm. Using eqn (2), the percentage viability, which represents the relative viability of the treated cells in comparison to the control cells, was calculated, and the IC50 values and standard deviation of the substances under investigation were calculated in triplicate.2 [drawing 2]
as §2

[3] = system: HeLa cells; test: Flow cytometry cell cycle analysis by PI staining; conditions: 48 h, complexes at IC50, cis-platin 5 μM
Description: A flow cytometer was also used to do the apoptotic assessment. HeLa cells (5 × 10^5) were seeded onto 6-well plates using Dulbecco's Modified Eagle Medium paper (DMEM) with 10% FBS. The plates were incubated overnight at 37 °C with 95% air and 5% CO2. […] Following trypsinization, the cells were collected, cleaned with PBS, and fixed for 24 hours at 2–6 °C in ice-cold 70% ethanol. Centrifugation was used to remove the ethanol, and cold PBS was used twice to wash the cell pellets. Later the cells were stained with propidium iodide (PI, 1 mg mL^−1) and incubated for 30 min. Flow cytometric analysis was performed using a FACS scanner and the Becton Dickinson cell search program at 595 nm and the distribution of cells in various cell cycle phases was determined.[69,70]
Through cell cycle analysis, the mechanism of cancer cell death caused by the complexes was evaluated. Anticancer drugs promote growth-inhibitory action in cancer cells by a variety of mechanisms, one of which is dysfunction in the regulation of the cell cycle.[32] For example, cis-platin inhibits DNA transcription in cells by stopping the cell cycle in the S and G2/M phases. PI staining and flow cytometry were used to examine the ability of the complexes to modify the cell cycle (Fig. 19).

[4] = system: HeLa cells; test: ROS generation, DCFH-DA staining; conditions: IC50 doses, 48 hours
Description: HeLa cells of density 5 × 10^4 were seeded in six-well plates with high glucose DMEM and kept overnight until cell confluency was attained. […] The cells were treated with 10 mM 20,70-dichlorodihydrofluorescein diacetate (DCHF-DA) dye after washing twice with PBS buffer. Later, cells were incubated at 37 °C in complete darkness for 30 minutes. Subsequently, an inverted fluorescent microscope (Olympus Confocal Laser Scanning Microscope Fluoview Fv3000) was used to assess the ROS level of the cells. […] The amount of intracellular ROS was expressed as the average fluorescence intensity.[71,72]
ROS have been proposed as potential mediators of oxidative stress-induced apoptosis caused by titanium(IV) complexes, and the electrophoresis experiment mentioned above supports this theory.

[5] = system: HeLa cells; test: AO–EB staining assay; conditions: IC50 concentration, 48 hours
Description: A dual AO–EB staining fluorescent labelling technique was performed utilizing the Gohel et al. protocol, HeLa cells were seeded in 6-well plates at a density of 5 × 10^4. They were grown in a humidified CO2 incubator at 37 °C until they reached 70–80% confluency. […] The media were removed from each well, and the cells underwent two gentle room-temperature PBS rinses. Following that, the cells were combined with 100 μL of ethidium bromide and acridine orange dye and incubated separately for 15 minutes at 37 °C after staining separately, and the plates were observed and images were captured with an Olympus Confocal Laser Scanning Microscope—Fluoview Fv3000.[67,68]
The most important requirement in the creation of novel anticancer drugs is to determine the apoplastic induction caused by the drug concerned. AO–EB assay staining aids in the differentiation of necrotic, apoptotic, and living cells. By means of AO–EB staining, the morphological alterations caused by Ti-1-IS to Ti-6-IBr in HeLa cells were investigated. AO can penetrate intact cell membranes and dye them green; this distinction is caused in early apoptotic as well as normal cells. In contrast, EB can only enter cells that have lost their ability to form membranes, leaving an orange stain behind, identifying them as necrotic or late apoptotic cells.

SMILES	IC50 [1]	IC50 [2]	Selectivity [1]	G0/G1 phase [3]	S Phase [3]	Sub-G0 phase [3]	ROS production compared to the control [4]	Apoptosis induction by AO–EB staining [5]
[O-]C(=NN=Cc1ccccc1[O-])c1ccncc1.[O-]C(=NN=Cc1ccccc1[O-])c1ccncc1.[Ti+4] [Ti-1-IS]	61.76 ± 0.1 µM							
Brc1ccc2c(c1)C=NN=C(c1ccncc1)[O][Ti]1([O]C(c3ccncc3)=NN=Cc3cc(Br)ccc3[O]1)[O]2 (centres unmarked) [Ti-6-IBr]	78.64 ± 0.2 µM							
[O-]C(=NN=Cc1cc(F)ccc1[O-])c1ccncc1.[O-]C(=NN=Cc1cc(F)ccc1[O-])c1ccncc1.[Ti+4] [Ti-4-IF]	47.3 ± 0.5 µM							
[O-]C(=NN=Cc1c([O-])ccc2ccccc12)c1ccncc1.[O-]C(=NN=Cc1c([O-])ccc2ccccc12)c1ccncc1.[Ti+4] [Ti-2-IN]	74.04 ± 0.5 µM	> 250 µM						
COc1cccc(C=NN=C([O-])c2ccncc2)c1[O-].COc1cccc(C=NN=C([O-])c2ccncc2)c1[O-].[Ti+4] [Ti-3-IO]	27.2 ± 1.1 µM		> 29	18.32%	19.41%	28.48%	increased fluorescence	apoptosis was triggered
[O-]C(=NN=Cc1cc(Cl)ccc1[O-])c1ccncc1.[O-]C(=NN=Cc1cc(Cl)ccc1[O-])c1ccncc1.[Ti+4] [Ti-5-ICl]	24.2 ± 0.7 µM	> 250 µM	> 26	7.45%	16.10%	14.72%	increased fluorescence	apoptosis was triggered
